Values of other authors, collected in PMC5572761 (Journal of medicinal chemistry, 2017).

Test system: α3β4 nAChR
Conditions: read-out: IC50 [nM] α3β4; cited from earlier work

In the case of α-conotoxin AuIB [Peptide 17], the IC50 is given as 750 nM.
